Source: patent publication US5852191A, “Rigidized monomethine cyanines” (Carnegie Mellon University, priority 1995, dated 1998)

How the values were obtained:
Type in all cases: physicochemical
[1] = Relative fluorescence intensities of the compounds of Examples A and B in a variety of solvents (Table 4)
Description: See M. T. Ramos et al., Heterocycles, Vol. 29, p. 165 (1989).

[2] = Absorption/emission spectra and molar extinction coefficients of the compounds of Examples A and B in solvents (Table 3)
Description: (§1) The observed absorption maxima, molar extinction coefficients, emission maxima and qualitative solubility data for the boron-rigidized complexes of Examples A and B are provided in Table 3.

[3] = Qualitative solubility of the compounds of Examples A and B (Table 3); conditions: applies to either dye compound
Description: as §1

[4] = Resistance to photodegradation (500 watt mercury vapor lamp; optical density monitored)
Description: The resistance to photodegradation of the compounds of Examples A and B in methanol and dichloromethane was also investigated and was compared with photofading rates of certain Coumarin dyes. A degassed solution of each dye in a quartz cuvette was illuminated with a 500 watt mercury vapor lamp from a distance of 4 inches. The solution optical density at maximum wavelength was monitored as a function of time.

[5] = Relative fluorescence of boron-rigidized vs unrigidized dye in methanol (FIG. 2); conditions: excited at 348 nm, vs bis-benzoxazolylmethene hydrochloride
Description: The present inventors have determined that the rigidization of the basic monomethine cyanine structure increase the quantum efficiency of the dye molecules as much as 5 to 20 times. Thus, the boron-rigidized dyes of the present invention are unusually fluorescent compared with nonrigidized cyanine dye molecules. The present invention thus provides a method for increasing the fluorescence of dyes by rigidizing monomethine cyanine compounds with a boron bridge. Rigidization increase the planarity of the compound, and the fluorescence intensity.

## F[B-]1(F)N2C(=Cc3oc4ccccc4[n+]31)Oc1ccccc12 [Example B, Bis-benzoxazolylmethene Borondifluoride]
[1]; Acetonitrile
  Relative fluorescence intensity: 1.39
[1]; Chloroform
  Relative fluorescence intensity: 1.27
[1]; Ethanol
  Relative fluorescence intensity: 1.33
[1]; Ethyl Acetate
  Relative fluorescence intensity: 1.20
[1]; Methanol
  Relative fluorescence intensity: 1.35
[1]; Toluene
  Relative fluorescence intensity: 1.42
[2]; Acetonitrile
  Logarithm of the Extinction coefficient: 4.72 M^-1 cm^-1
  Max. absorption wavelength: 358 nm
  Max. emission wavelength: 385 nm
[2]; Chloroform
  Logarithm of the Extinction coefficient: 4.72 M^-1 cm^-1
  Max. absorption wavelength: 360 nm
  Max. emission wavelength: 386 nm
[2]; Ethanol
  Max. absorption wavelength: 358 nm
  Max. emission wavelength: 386 nm
[2]; Ethyl Acetate
  Logarithm of the Extinction coefficient: 4.74 M^-1 cm^-1
  Max. absorption wavelength: 358 nm
  Max. emission wavelength: 383 nm
[2]; FIG. 3 and FIG. 4
  Shape of emission spectrum relative to absorption spectrum: appears to be much broader
[2]; Methanol
  Max. absorption wavelength: 358 nm
  Max. emission wavelength: 385 nm
[2]; Toluene
  Logarithm of the Extinction coefficient: 4.74 M^-1 cm^-1
  Max. absorption wavelength: 360 nm
  Max. emission wavelength: 392 nm
[2]; solvents of Table 3
  Stokes shift: 28 nm
[3]; Acetonitrile
  Solubility data (qualitative): sol.
[3]; Chloroform
  Solubility data (qualitative): sol.
[3]; Ethanol
  Solubility data (qualitative): sparingly
[3]; Ethyl Acetate
  Solubility data (qualitative): sol.
[3]; Methanol
  Solubility data (qualitative): sparingly
[3]; Toluene
  Solubility data (qualitative): sol.
[4]; dichloromethane
  Red shift at the maximum wavelength: approximately 12 nm
  Resistance to photofading compared with the Coumarin dyes: more resistant to photofading than the Coumarin dyes
[4]; methanol, 500 watt mercury vapor lamp
  Photofading rate compared with the corresponding Coumarin compound: faded at a similar rate
[5]
  Quantum yield compared with the unrigidized dye: several fold greater than the unrigidized dye
